Data published in article PMC6348381, “Discovery of an MLLT1/3 YEATS Domain Chemical Probe” (Angewandte Chemie (International Ed. in English), 2018).

Legend:
Type in all cases: binding
BAZ1B = target: T1, BAZ1B (Homo sapiens, UniProt Q9UIG0); experiment: Thermal shift assay, BAZ1B
T1 construct: purchased in-house (SGC bromodomain thermal shift / AlphaScreen panel)
T1 sequence (Q9UIG0 1-1483): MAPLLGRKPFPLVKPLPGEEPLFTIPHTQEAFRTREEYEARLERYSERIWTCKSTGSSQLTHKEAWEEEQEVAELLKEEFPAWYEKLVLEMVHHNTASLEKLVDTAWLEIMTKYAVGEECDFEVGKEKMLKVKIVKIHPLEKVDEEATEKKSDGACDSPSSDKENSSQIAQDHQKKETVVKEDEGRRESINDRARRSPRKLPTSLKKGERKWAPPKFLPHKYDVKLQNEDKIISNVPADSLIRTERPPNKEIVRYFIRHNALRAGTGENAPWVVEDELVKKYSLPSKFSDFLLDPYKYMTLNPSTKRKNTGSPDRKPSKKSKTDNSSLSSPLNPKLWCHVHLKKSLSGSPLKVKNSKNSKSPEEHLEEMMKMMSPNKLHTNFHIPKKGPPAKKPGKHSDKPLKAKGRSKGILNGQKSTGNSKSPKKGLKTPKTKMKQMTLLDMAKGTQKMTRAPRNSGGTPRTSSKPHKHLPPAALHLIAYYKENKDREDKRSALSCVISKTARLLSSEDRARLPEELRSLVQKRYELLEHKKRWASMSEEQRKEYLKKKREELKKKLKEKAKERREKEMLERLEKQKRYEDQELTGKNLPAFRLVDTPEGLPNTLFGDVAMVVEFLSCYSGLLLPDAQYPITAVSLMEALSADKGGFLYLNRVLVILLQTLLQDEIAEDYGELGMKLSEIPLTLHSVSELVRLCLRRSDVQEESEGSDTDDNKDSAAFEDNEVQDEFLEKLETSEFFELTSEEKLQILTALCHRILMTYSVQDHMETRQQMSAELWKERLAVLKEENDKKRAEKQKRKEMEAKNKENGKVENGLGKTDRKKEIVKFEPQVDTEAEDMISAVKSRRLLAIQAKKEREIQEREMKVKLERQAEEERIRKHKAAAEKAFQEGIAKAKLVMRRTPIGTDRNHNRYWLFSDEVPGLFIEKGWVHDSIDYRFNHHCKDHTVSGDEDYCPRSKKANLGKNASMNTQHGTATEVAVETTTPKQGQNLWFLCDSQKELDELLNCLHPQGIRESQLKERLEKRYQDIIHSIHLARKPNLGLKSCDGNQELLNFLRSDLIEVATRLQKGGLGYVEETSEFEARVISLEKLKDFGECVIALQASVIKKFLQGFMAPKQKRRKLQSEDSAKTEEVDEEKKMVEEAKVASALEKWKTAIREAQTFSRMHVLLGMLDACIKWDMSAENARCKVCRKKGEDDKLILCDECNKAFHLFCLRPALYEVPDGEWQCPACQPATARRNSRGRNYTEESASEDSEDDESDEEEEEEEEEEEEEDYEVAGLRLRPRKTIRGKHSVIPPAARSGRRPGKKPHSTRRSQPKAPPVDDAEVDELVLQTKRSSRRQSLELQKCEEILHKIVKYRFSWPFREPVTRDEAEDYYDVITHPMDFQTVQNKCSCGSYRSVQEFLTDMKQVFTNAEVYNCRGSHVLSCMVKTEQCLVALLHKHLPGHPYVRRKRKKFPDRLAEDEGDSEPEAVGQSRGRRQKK
Method: (§1) II.VII Thermal Shift Assay[6]
(§2) Thermal melting experiments were carried out using an Mx3005p Real Time PCR machine (Stratagene). Proteins were buffered in 10 mM HEPES pH 7.5, 500 mM NaCl and assayed in a 96-well plate at a final concentration of 2 μM in 20 μL volume. Compounds were added at a final concentration of 50 μM. SYPRO Orange (Molecular Probes) was added as a fluorescence probe at a dilution of 1:1000. Excitation and emission filters for the SYPRO-Orange dye were set to 465 nm and 590 nm, respectively. The temperature was raised with a step of 3 °C per minute from 25 °C to 96 °C and fluorescence readings were taken at each interval. The unfolding curves were fitted using the Boltzmann equation to determine the middle point of the transition.

PB1(1) = target: T2, PB1(1) (Homo sapiens, UniProt Q86U86); experiment: Thermal shift assay, PB1(1)
T2 construct: PB1(1); purchased in-house (SGC bromodomain thermal shift / AlphaScreen panel)
T2 sequence (Q86U86 43-156 limits assumed): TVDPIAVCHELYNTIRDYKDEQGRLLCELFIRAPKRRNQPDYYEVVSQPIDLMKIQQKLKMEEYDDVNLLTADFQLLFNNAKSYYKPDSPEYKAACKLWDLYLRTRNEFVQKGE
Method: as §1, §2

PB1(6) = target: T3, PB1(6) (Homo sapiens, UniProt Q86U86); experiment: Thermal shift assay, PB1(6)
T3 construct: PB1(6); purchased in-house (SGC bromodomain thermal shift / AlphaScreen panel)
T3 sequence (Q86U86 773-914 limits assumed): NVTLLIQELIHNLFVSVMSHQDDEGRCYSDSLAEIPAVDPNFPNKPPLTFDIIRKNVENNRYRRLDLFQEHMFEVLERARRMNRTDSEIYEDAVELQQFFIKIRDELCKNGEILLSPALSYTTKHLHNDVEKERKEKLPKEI
Method: as §1, §2

BRD1 = target: T4, BRD1 (Homo sapiens, UniProt O95696); experiment: Thermal shift assay, BRD1
T4 construct: purchased in-house (SGC bromodomain thermal shift / AlphaScreen panel)
T4 sequence (O95696 1-1058): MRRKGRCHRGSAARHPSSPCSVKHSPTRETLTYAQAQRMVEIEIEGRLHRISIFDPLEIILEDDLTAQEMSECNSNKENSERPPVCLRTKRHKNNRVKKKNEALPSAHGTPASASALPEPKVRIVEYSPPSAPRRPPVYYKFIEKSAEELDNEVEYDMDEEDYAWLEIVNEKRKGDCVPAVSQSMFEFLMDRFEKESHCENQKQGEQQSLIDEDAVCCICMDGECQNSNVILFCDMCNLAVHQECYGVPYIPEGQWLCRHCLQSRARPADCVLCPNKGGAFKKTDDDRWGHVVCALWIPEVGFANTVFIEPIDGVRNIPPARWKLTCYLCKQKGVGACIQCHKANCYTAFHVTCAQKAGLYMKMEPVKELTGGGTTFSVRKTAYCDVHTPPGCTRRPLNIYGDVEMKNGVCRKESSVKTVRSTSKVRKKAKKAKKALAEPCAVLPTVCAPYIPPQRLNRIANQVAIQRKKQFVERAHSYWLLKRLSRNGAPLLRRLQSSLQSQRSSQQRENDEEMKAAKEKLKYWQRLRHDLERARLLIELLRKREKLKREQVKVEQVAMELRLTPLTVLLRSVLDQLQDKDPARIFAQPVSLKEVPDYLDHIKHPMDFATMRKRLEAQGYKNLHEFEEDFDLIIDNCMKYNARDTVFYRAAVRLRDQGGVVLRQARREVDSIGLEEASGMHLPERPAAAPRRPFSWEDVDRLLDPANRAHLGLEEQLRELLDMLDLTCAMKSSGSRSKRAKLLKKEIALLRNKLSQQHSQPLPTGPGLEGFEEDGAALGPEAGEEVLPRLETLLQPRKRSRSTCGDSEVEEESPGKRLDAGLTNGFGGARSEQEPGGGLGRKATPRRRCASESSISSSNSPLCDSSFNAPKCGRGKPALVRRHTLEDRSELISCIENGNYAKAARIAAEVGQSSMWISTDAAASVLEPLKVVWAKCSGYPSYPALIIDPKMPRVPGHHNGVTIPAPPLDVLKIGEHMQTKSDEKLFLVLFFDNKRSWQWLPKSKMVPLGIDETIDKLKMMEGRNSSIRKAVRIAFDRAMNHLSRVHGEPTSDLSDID
Method: as §1, §2

Structure (SMILES)	Thermal stabilisation, BAZ1B (BAZ1B; 10 µM compound concentration)	Thermal stabilisation, PB1(1) (PB1(1); 10 µM compound concentration)	Thermal stabilisation, PB1(6) (PB1(6); 10 µM compound concentration)	Thermal stabilisation, BRD1 (BRD1; 10 µM compound concentration)	Thermal stabilisation, BAZ1B (BAZ1B; 50 μM compound)	Thermal stabilisation, PB1(1) (PB1(1); 50 μM compound)	Thermal stabilisation, PB1(6) (PB1(6); 50 μM compound)	Thermal stabilisation, BRD1 (BRD1; 50 μM compound)
CCOC(=O)Nc1cc(-c2ccc(C)c(NS(C)(=O)=O)c2)nn2c(C)nnc12 [Bromosporine, reference compound]	-0.23	0.98	0.82	2.055				
COC(=O)c1ccc(C(=O)Nc2ccc3[nH]c(CN4CCCCC4)nc3c2)cc1 [Compound 1]					1.03	-1.095	0.17	0.2
C[C@H]1CCCN1Cc1nc2cc(NC(=O)c3ccc4c(cnn4C)c3)ccc2[nH]1 [Compound 92]					-0.19	-1.745	-0.365	0.215
